Laboratory results reported in patent publication US6846845B2, “Heat shock protein inducer” (Eisai Co., Ltd., priority 2002, dated 2005).

What was measured:
Type in all cases: in vivo, rat
[1] = system: HSP70; experiment: Effect of chelerythrine pretreatment on GGA-induced HSP70 expression in the heart (Western immunoblotting), Example 2; conditions: 24 h after GGA 200 mg/kg oral or vehicle; chelerythrine 5 mg/kg i.v. pretreatment, FIG. 8
Protocol: Male Sprague-Dawley rats (220-250 g) were used. GGA, as an emulsion with 5% gum arabic and 0.008% tocopherol, was given orally at a dose of 200 mg/kg. Rats were classified into 4 groups. FIG. 7 is a diagrammatic representation of experimental protocol. […] Twenty-four hours after oral administration of GGA or vehicle, rats were anesthetized (sodium pentobarbital, 50 mg/kg IP) and heparinized (500 IU/kg IP). Hearts were excised, immediately frozen in liquid nitrogen, and stored at −70° C. until use for Western blot analysis (n=4 for each group). […]
To analyze the expression of HSP70, the frozen heart samples were homogenized with SDS sample buffer (pH 6.8, 20% glycerol, 6% SDS, 0.12M Tris), centrifuged and boiled (Maloyan A, Palmon A, Horowitz M. Heat acclimation increases the basal HSP70 level and alters its production dynamics during heat stress. Am J Physiol. 1999; 276:R1506-R1515.). […] The total protein concentration of heart was quantified by the Bradford method (Bradford MM. A rapid and sensitive method for quantitation of microgram quantities of protein utilizing the principle of protein-dye binding. Anal. Biochem. 1976;72:248-254). […] The proteins were detected by ECL with exposure to Hyperfilm (Amersham Pharmacia). The amount of protein on the immunoblots was quantified using National Institutes of Health image software. […]

[2] = system: eNOS; experiment: eNOS induction in the heart after oral administration (Western blotting); conditions: oral 200 mg/kg, 24 hours after administration, FIG. 4(A)
From the text: (§1) Monoclonal IgG antibody cross-reactive to HSP70, HSP60 and HSP27 antibodies was purchased from Stressgen Biotechnologies Corporation ([…], Canada). Primary antibodies of nitric oxide synthase (NOS) or in other words inducible NOS (iNOS), endothelial NOS (eNOS) and neuronal NOS (nNOS) were purchased from Transduction Laboratories (Lexington, Ky.). The primary antibody of thioredoxin was kindly provided by Professor Yodoi of Kyoto University.
(§2) An emulsion of 100% by weight of geranylgeranylacetone (GGA) with 5% by weight of gum arabic and 0.008% by weight of tocopherol was given orally to the rats described above. The oral dosages were 50 mg/kg, 100 mg/kg, 200 mg/kg and 400 mg/kg (GGA groups). […] The vehicle was administered orally to the Control Group.
(§3) Next, the hearts were removed from the killed rats and frozen in liquid nitrogen. […]
(§4) The total protein concentration of the myocardium was quantified by the Bradford method (Bradford M M. A rapid and sensitive method for quantitation of microgram quantities of protein utilizing the principle of protein-dye binding. Anal Biochem 1976; 72:248-254). […] The proteins were detected by exposing the ECL cells with Hyperfilm (Amersham Pharmacia, Buckinghamshire, UK). Based on this, the amount of proteins on the immunoblots was quantified using National Institutes of Health (NIH) imaging software. […]

[3] = system: thioredoxin; experiment: Thioredoxin induction in the heart after oral administration (Western blotting); conditions: oral 200 mg/kg, 24 hours after administration, FIG. 4(B)
From the text: as §1, §2, §3, §4

[4] = system: HSP60; experiment: HSP60 induction in the heart after oral administration (Western blotting); conditions: oral 200 mg/kg, 24 hours after administration, FIG. 3(B)
Protocol: as §2
Next, the hearts were removed from the killed rats and frozen in liquid nitrogen.
Western blotting was then performed (Maloyan A, Palmon A, Horowitz M. Heat acclimation increases the basal HSP70 level and alters its production dynamics during heat stress. Am J Physiol 1999; 276:R1506-R1515). The frozen hearts were homogenized with SDS (sodium dodecyl sulfate) buffer, centrifuged and boiled.
as §4, with “72:248-254). The prepared hearts were then diluted in electrolyte buffer.” for “72:248-254).”

In the case of `CC(=O)CCC=C(C)CCC=C(C)CCC=C(C)CCC=C(C)C` [GGA, 6, 10, 14, 18-tetramethyl-5,9, 13, 17-nonadecatetraen-2-one], the “HSP70 expression in the heart (relative density to control group)” value [1] is reported as “increased”, the “eNOS induction in the heart” value [2] is reported as “neither iNOS nor eNOS was induced” and the “thioredoxin induction in the heart” value [3] is reported as “not induced”. The “HSP60 expression versus control group” value [4] was “significantly decreased”.
